Reference: ChEMBL document CHEMBL5465560, “Selectivity Literature for EUbOPEN Chemogenomic Library” (2024)

Columns and labels:
[1] = target: T1, Tyrosine-protein kinase receptor TYRO3 (Homo sapiens) (UniProt Q06418); test: Selectivity interaction (KinomeScan (DiscoverX)) EUB0000695a TYRO3; details: at 100 nM
T1 sequence (whole entry): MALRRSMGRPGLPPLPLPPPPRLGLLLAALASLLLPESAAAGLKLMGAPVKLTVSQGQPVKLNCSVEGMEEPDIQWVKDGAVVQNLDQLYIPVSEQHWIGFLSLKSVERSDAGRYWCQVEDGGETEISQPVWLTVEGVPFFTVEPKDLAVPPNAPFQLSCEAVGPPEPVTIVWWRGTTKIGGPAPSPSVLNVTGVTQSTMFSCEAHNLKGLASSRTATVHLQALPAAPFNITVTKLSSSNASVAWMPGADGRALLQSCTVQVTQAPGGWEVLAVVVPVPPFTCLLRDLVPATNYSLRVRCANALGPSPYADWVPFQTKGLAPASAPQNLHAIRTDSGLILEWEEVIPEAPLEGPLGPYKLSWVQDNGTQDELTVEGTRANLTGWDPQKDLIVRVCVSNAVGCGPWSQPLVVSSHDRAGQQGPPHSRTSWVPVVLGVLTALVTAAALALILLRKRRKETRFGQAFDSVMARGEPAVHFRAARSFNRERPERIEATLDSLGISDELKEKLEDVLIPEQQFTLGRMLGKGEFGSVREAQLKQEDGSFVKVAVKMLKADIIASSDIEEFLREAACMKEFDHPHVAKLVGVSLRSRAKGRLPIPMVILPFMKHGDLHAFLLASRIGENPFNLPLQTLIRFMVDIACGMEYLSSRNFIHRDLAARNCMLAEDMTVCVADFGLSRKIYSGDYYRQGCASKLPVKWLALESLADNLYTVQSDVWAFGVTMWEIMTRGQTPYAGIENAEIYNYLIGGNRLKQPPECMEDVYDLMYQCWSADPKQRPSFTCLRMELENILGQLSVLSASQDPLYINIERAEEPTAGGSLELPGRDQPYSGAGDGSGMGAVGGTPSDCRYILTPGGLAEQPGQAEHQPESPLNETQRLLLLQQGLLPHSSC

[2] = target: Tyrosine-protein kinase FRK (Homo sapiens) (UniProt P42685); test: Selectivity interaction (KinomeScan (DiscoverX)) EUB0000666a FRK; details: at 10 µM
[3] = target: T2, Dual specificity tyrosine-phosphorylation-regulated kinase 2 (Homo sapiens) (UniProt Q92630); details: at 10 µM
T2 sequence (whole entry): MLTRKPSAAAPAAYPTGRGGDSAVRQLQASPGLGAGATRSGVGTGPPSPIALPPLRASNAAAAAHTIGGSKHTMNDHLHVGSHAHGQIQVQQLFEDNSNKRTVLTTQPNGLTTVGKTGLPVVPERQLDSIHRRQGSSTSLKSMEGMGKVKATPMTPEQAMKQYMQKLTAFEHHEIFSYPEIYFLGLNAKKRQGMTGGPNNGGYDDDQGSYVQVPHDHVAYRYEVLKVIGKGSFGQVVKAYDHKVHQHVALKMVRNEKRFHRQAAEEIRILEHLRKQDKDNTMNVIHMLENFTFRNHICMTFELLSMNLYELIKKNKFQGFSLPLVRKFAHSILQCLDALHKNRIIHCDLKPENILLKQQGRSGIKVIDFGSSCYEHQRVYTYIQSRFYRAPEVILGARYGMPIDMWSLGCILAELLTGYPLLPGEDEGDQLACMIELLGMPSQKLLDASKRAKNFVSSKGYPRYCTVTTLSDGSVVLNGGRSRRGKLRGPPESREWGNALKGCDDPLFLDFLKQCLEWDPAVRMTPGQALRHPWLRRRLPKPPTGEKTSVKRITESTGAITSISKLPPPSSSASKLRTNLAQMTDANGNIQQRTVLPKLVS

Insulin receptor = Insulin receptor (Homo sapiens, UniProt P06213); test: Selectivity interaction (Millipore kinase profiler) EUB0000124b INSR; details: at 10 µM
[4] = target: T3, Ephrin type-A receptor 1 (Homo sapiens) (UniProt P21709); test: Selectivity interaction (Upstate Kinase Profiler service (Millipore)) EUB0000056c EPHA1; details: at 1 µM
T3 sequence (whole entry): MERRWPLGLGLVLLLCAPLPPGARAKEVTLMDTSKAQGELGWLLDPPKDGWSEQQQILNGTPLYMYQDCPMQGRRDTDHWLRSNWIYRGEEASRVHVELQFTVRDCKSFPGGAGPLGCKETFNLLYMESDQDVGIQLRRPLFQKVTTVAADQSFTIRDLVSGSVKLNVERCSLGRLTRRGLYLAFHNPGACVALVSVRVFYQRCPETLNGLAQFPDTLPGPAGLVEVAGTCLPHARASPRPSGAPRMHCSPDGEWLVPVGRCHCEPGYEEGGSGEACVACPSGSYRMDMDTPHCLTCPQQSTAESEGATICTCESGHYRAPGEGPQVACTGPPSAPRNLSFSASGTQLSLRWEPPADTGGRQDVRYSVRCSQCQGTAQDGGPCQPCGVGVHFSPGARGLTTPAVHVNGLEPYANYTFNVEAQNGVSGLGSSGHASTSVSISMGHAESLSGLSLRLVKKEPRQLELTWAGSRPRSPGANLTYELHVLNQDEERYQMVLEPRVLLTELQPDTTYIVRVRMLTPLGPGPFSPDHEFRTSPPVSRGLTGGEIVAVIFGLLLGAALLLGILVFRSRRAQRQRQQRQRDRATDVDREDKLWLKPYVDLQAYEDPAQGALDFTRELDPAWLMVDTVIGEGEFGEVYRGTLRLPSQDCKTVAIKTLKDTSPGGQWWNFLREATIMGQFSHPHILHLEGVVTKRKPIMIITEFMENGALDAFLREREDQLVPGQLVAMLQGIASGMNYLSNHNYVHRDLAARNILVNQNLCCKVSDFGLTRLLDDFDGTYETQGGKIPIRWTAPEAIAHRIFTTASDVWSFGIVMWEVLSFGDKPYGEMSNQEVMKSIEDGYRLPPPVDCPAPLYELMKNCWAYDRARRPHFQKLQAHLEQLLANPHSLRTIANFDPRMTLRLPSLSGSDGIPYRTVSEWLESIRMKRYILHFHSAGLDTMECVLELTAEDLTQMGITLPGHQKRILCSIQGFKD

[5] = target: Tyrosine-protein kinase JAK1 (Homo sapiens, UniProt P23458); test: Selectivity interaction (Kinase panel (Invitrogen)) EUB0000639a JAK1; details: at 200 nM
[6] = target: Ribosomal protein S6 kinase alpha-1 (Homo sapiens, UniProt Q15418); test: Selectivity interaction (ActivX KiNativ screen (kinase selectivity in THP-1 cell lysates)) EUB0000639a RPS6KA1; type: subcellular; details: lysate, at 1 µM
[7] = target: SRSF protein kinase 2 (Homo sapiens) (UniProt P78362); test: Selectivity interaction (KinomeScan (DiscoverX)) EUB0000655a SRPK2; details: at 10 µM
[8] = target: Phosphatidylinositol 4,5-bisphosphate 3-kinase catalytic subunit beta isoform (Homo sapiens) (UniProt P42338); test: Selectivity interaction (Ambit KINOMEscan and KiNATiv profiling in Jurkat cells) EUB0000090b PIK3CB; type: cell-based; details: at 1 µM
Phosphatidylinositol 4,5-bisphosphate 3-kinase catalytic subunit beta isoform (Homo sapiens), sequence (P42338 whole entry, looked up, canonical isoform): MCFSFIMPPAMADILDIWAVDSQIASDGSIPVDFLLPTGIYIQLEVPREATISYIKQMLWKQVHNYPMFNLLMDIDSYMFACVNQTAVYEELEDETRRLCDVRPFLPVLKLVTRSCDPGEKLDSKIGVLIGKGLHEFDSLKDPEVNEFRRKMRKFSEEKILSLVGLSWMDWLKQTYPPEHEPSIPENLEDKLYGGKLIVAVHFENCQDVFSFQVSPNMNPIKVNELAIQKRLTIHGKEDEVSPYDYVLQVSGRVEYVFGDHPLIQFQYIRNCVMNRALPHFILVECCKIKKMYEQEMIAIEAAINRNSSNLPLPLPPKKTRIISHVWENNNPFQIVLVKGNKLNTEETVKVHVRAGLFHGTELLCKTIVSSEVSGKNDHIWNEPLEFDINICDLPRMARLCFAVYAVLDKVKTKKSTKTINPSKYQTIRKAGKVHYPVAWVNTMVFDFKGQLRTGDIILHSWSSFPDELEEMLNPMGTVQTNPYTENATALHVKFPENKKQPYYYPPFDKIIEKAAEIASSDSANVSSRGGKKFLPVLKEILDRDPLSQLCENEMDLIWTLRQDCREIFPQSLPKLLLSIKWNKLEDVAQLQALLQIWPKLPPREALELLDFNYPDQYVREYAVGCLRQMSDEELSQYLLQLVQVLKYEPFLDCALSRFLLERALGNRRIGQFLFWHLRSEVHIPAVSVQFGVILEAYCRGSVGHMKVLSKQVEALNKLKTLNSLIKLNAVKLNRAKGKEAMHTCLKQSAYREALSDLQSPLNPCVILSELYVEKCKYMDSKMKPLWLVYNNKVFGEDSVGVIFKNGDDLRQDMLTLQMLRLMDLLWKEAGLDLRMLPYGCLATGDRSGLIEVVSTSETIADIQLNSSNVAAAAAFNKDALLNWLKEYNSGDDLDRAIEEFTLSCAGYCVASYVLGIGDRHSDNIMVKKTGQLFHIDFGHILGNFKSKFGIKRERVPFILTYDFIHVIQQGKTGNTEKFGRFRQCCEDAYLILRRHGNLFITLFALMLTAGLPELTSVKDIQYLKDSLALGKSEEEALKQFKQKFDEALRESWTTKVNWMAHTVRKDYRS

Ribosomal protein S6 kinase alpha-1, sequence (Q15418 whole entry): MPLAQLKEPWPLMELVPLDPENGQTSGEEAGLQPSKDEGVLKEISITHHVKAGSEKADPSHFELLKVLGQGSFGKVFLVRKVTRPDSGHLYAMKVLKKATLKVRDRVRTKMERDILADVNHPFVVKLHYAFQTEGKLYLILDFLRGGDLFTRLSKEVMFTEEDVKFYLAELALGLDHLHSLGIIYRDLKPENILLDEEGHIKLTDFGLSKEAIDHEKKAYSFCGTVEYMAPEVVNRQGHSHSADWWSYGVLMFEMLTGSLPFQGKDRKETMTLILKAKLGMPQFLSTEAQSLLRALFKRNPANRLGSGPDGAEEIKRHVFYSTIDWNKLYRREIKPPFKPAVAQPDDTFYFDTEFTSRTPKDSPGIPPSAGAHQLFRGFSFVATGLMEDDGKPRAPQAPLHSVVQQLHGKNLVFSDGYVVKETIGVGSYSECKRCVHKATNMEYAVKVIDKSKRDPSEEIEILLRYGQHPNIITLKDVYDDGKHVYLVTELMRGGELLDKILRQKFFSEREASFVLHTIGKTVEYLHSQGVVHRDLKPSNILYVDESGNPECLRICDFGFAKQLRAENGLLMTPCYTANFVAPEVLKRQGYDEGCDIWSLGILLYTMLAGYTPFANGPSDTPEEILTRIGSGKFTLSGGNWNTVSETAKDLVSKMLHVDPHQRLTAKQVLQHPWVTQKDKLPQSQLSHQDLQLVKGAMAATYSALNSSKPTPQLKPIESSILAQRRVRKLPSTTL
Insulin receptor, sequence (P06213 28-758 limits assumed): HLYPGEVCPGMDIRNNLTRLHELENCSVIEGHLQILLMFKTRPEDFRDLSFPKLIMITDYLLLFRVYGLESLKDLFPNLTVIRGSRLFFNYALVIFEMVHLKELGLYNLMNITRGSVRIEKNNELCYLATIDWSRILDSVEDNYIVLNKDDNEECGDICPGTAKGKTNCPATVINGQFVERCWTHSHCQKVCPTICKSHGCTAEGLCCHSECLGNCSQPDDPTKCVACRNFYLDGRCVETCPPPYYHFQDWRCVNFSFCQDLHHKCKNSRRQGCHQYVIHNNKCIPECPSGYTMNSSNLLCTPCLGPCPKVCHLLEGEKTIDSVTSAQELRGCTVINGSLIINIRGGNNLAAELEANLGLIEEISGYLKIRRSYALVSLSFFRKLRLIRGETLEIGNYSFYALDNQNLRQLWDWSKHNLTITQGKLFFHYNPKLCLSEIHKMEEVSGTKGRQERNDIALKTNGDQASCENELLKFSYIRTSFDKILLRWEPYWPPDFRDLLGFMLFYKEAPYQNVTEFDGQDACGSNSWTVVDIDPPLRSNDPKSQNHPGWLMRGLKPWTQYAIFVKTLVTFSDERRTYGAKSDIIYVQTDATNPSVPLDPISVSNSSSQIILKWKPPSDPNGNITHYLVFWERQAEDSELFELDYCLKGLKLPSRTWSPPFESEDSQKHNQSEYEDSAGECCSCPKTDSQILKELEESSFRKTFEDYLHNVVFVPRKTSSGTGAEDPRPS
Insulin receptor, sequence (P06213 763-1382 limits assumed): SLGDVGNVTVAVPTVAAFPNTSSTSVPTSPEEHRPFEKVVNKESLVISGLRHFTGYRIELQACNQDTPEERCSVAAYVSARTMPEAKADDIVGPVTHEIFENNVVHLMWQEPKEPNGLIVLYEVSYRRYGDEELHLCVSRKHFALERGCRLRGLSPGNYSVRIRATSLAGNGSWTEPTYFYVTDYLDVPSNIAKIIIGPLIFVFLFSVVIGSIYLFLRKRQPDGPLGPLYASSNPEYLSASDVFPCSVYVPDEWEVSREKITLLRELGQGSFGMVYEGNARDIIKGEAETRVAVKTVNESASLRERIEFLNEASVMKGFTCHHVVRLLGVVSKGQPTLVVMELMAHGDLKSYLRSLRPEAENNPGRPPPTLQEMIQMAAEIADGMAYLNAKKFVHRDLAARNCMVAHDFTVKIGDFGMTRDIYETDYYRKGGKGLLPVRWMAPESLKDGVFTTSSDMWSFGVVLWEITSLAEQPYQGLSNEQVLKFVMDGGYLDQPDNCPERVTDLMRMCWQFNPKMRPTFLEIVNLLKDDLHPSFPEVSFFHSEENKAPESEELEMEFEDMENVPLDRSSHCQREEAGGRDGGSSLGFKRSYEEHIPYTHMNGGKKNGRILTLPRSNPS
Tyrosine-protein kinase FRK (Homo sapiens), sequence (P42685 whole entry): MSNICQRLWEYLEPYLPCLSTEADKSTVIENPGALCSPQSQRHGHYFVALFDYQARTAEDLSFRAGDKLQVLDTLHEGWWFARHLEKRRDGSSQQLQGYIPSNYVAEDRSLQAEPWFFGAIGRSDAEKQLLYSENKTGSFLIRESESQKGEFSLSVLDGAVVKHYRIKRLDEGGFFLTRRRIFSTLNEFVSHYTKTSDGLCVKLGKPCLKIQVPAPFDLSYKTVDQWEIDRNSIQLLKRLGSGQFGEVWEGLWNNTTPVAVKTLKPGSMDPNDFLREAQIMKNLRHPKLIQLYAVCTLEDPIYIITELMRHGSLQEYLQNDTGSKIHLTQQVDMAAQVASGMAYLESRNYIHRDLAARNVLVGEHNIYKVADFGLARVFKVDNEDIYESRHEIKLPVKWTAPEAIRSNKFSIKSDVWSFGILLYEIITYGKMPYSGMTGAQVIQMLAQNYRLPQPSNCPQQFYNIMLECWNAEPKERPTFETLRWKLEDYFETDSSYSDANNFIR
Tyrosine-protein kinase JAK1, sequence (P23458 whole entry): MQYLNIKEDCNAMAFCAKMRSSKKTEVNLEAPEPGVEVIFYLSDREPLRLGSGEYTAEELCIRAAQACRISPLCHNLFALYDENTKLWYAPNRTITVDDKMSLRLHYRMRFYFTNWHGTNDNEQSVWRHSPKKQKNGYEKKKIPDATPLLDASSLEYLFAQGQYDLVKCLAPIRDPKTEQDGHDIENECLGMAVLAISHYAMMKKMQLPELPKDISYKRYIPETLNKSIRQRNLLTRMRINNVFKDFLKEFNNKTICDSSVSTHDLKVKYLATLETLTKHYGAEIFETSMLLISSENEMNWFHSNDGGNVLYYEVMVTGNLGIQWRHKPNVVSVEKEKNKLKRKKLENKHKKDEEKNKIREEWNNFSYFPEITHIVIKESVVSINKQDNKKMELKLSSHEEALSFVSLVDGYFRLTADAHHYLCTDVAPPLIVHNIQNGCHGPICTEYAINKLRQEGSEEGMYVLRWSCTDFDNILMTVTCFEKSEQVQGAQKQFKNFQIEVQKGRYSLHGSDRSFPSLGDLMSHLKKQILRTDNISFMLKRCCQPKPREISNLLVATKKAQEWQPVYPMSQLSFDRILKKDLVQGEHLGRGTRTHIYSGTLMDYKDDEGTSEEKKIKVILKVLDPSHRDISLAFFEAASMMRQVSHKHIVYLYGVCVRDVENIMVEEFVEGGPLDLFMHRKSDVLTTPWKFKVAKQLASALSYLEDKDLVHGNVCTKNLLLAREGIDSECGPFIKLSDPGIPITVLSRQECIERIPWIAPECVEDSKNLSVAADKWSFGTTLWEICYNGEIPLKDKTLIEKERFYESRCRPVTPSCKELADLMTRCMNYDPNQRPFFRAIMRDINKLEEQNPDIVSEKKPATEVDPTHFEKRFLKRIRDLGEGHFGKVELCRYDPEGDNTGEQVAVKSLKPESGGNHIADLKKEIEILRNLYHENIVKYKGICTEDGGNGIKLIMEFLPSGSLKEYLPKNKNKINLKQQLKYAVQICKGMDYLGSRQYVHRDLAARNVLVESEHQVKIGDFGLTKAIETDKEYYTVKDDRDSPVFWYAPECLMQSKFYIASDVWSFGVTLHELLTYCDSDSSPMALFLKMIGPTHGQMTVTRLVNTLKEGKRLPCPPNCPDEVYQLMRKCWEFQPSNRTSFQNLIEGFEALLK

Cc1cc(F)c(C(=O)Nc2cccc(-c3nncn3C(C)C)n2)cc1-n1cnc(C2CC2)c1 gave a % of control [1] of 86%.
For O=C(NOC[C@H](O)CO)c1ccc(F)c(F)c1Nc1ccc(I)cc1F, the % of control [2] was 60%.
Cc1cc([C@@H](C)Nc2ccccc2C(=O)O)c2nc(N3CCOCC3)cc(=O)n2c1 [AZD-6482] was tested, and the % of control [3] was 89%.
In the case of CC(=O)Nc1cccc(-n2c(=O)n(C3CC3)c(=O)c3c(Nc4ccc(I)cc4F)n(C)c(=O)c(C)c32)c1, the % of control (Insulin receptor) is reported as 129%.
Cc1ccc(-c2ccc3c(ccc4sc5c(c43)NC[C@@H](C)NC5=O)n2)cn1 was tested, and the % of inhibition [4] was -6%.
Work on CC[C@@H]1[C@H](F)C(=O)N[C@@H]1COc1nccc2cc(C(N)=O)c(OC)cc12 [ZIMLOVISERTIB] yielded a % of inhibition [5] of -0.407% and a % of inhibition [6] of 5.7%.
Work on CN(C)CCOc1ccc(-c2nc(-c3ccncc3)c(-c3ccc4c(c3)CC/C4=N\O)[nH]2)cc1 yielded a % of control [7] of 100%.
CN(C)C/C=C/C(=O)Nc1ccc(C(=O)N2CCCC(Nc3ncc(Cl)c(-c4c[nH]c5ccccc45)n3)C2)cc1 (centres undefined) was tested, and the % of control [8] was 100%.
